{"source": "patent US6967211B2", "about": "“Remedial agent for chronic articular rheumatism” (Nippon Shinyaku Co. Ltd., priority 2002, dated 2005)", "key": {"[1]": {"tested_on": "CDF1 male mice", "details": "single oral administration", "description": "7-week-old CDF1 male mice (6 mice) were used. The compound 1 was suspended in 0.5% methylcellulose and the resulting suspension was orally administered once by oral probe. The mortality rate was investigated after 2 weeks and the LD50 value was calculated by the probit method."}, "[2]": {"tested_on": "type II collagen-induced arthritis", "details": "for Inhibition ratio (%): arthritis score 35 days after primary sensitization", "description": "8-week-old DBA/1J male mice (7 to 10 mice) were used. 0.1 ml of an emulsion prepared by mixing a 0.1 M solution of acetic acid in physiological saline (2 mg/ml) of type II collagen derived from bovine joint cartilage and complete Freund's adjuvant at a mixing ratio of 1:1 was injected intradermally at the base of the tail in mice (primary sensitization). 21 days later, 0.1 ml of the emulsion prepared in the same manner as in case of primary sensitization was injected subcutaneously again at the back in mice (secondary sensitization). The test compound was suspended in an aqueous 0.5% methyl cellulose solution and administered orally to the mice once a day, which started from the primary or secondary sensitization. After 35 days from the primary sensitization, symptoms of arthritis was visually observed and the results were used a score of arthritis."}}, "note": "Like-named read-outs stand apart in the source and are kept apart here. Marks after values point to notes of the source that are not given here."}
{"smiles": "COc1ccc(S(=O)(=O)N(C(C)=O)c2ccccc2/C=C/c2cc[n+]([O-])cc2)cc1", "note": "[Compound 1]", "values": [{"measurement": "toxicity (in words)", "setting": "[1]; mice", "value": "very low toxicity"}, {"measurement": "LD50 value", "setting": "[1]; mortality after 2 weeks, probit method", "value": 620.5, "unit": "mg/kg"}, {"measurement": "Inhibition ratio (%)", "setting": "[2]; 1 mg/kg orally once a day, started from the primary sensitization", "value": "−8.5", "unit": "%"}, {"measurement": "inhibitory effect on type II collagen-induced arthritis (in words)", "setting": "[2]; 5 mg/kg from the primary sensitization, or 5 and 10 mg/kg from the secondary sensitization", "value": "significant inhibitory effect"}, {"measurement": "Inhibition ratio (%)", "setting": "[2]; 5 mg/kg orally once a day, started from the primary sensitization", "value": "69.5* %"}, {"measurement": "Inhibition ratio (%)", "setting": "[2]; 5 mg/kg orally once a day, started from the secondary sensitization", "value": "69.6* %"}, {"measurement": "Inhibition ratio (%)", "setting": "[2]; 10 mg/kg orally once a day, started from the secondary sensitization", "value": "100.0** %"}]}
